Results on 4 molecules are retold here after patent publication US9717722B2, “Methods and agents for treating tyrosinase-positive albinism” (NEW YORK UNIVERSITY, priority 2013, dated 2017).

Molecules are shown by their SMILES.

In data set [1] the test system is Oca2-null (OCA2) melanocytes. Nature of the data set: melanin assay in Oca2-null melanocytes. It counts as cell-based, mouse. The settings on record: for pigmentation (melanin level) in Oca2-null melanocytes: FIG. 1, harvested after 5 days, relative to DMSO vehicle. As for the experimental part:
(§1) Oca2-null cells were plated in 60 mm dishes for 24 hours followed by dosing with the indicated compounds. DMSO was used as a vehicle control (to establish the baseline for comparison). Cells were harvested after 5 days. Melanocytes were harvested in extraction buffer (50 mM Tris pH7.5, 2 mM EDTA, 150 mM NaCl) containing 1% Triton X-100 and protease inhibitors (Complete, Roche Indianapolis, Ind.) following two washes with 1× phosphate buffered saline (PBS). The lysate was centrifuged for 30 min at 13,000 rpm in a microfuge. The supernatant was removed and the protein concentration determined using a protein assay kit (BioRad, Richmond, Calif.). Three hundred μl of ethanol:ether (1:1) were added to the pellet, which was then vortexed. After incubation at room temperature for 10 min, the solvent was removed (leaving the melanin behind) and the ethanol:ether wash repeated without vortexing. The melanin was then dissolved in 2 N NaOH, 20% DMSO at 60-70° C. The optical density was determined at 490 nm. The value was normalized to protein concentration in the supernatant and expressed as a ratio of the melanin in the vehicle treated cells.
(§2) Cells were seeded in six-well plates in triplicate. After 24 hours, each cell line was treated with IBMX, forskolin or rapamycin, in addition, Oca2-null melanocytes were treated with bafilomycin. Plates were incubated for 72 hours. Melanocytes were harvested and a melanin assay performed as described above.
Oca2-null cells were plated in 60 mm dishes for 24 hours followed by dosing with the indicated compounds. DMSO was used as a vehicle control. […]
Selected compounds identified in the screen were tested using a traditional melanin assay in order to verify the findings of the screen. […] The supernatant was removed and the protein concentration determined using a protein assay kit (BioRad, Richmond, Calif.). […] The optical density was determined at 490 nm. The value was normalized to protein concentration in the supernatant and expressed as a ratio of the melanin in the untreated cells.

The test system of data set [2] is wildtype (WT) melanocytes. The conditions noted are these: Ni-Komatsu et al. 2008 Mol Pharmacol; cited from earlier work.
The subject of data set [3] is Oca3-null (OCA3) melanocytes. Briefly: melanin assay in Oca3-null melanocytes. The conditions noted are these: FIG. 2; 72 hours; relative to vehicle. Type of data set: cell-based, murine. The protocol: as §1
Oca3-null melanocytes were seeded in six-well plates in triplicate. After 24 hours, each cell line was treated with vehicle, chloroquine or rapamycin. Plates were incubated for 72 hours. Melanocytes were harvested and a melanin assay performed as described above.

The subject of a further data set is Oca2-null melanocytes. Nature of the data set: toxicity to Oca2-null melanocytes. It counts as cell-based, mouse. The settings on record: compared with wildtype melanocytes.
The subject of another data set is wildtype melanocytes. Nature of the data set: toxicity to wildtype melanocytes. It counts as cell-based. The settings on record: even at nanomolar concentrations.
In another data set the test system is Oca2-null cells. Nature of the data set: 96-well melanin absorbance screen with MTS cell proliferation assay. Type of data set: cell-based, mouse. The settings on record: library compounds at 5 and/or 1 μM; bafilomycin A1 as positive control. As for the experimental part:
The present inventors utilized the chemical genetics approach described herein to identify compounds that can be used to reverse the diminished pigmentation in Oca2-null cells. To this end, they first developed a 96-well assay system for rapid compound screening. Melanocytes were cultured in a 96-well plate in the presence of test compounds. Melanin content was determined by replacing the culture medium with PBS and measuring absorbance at 490 nm.
Following validation of their assay system, the present inventors performed a screen, treating Oca2-null cells with library compounds at concentrations of 5 and/or 1 μM. Each plate included untreated Oca2-null cells as negative controls and cells treated with bafilomycin A1 as positive controls. Compounds identified as potential hits were then re-screened to verify their ability to promote melanin synthesis in cells lacking functional Oca2 protein.
In general terms: Formazan colour is commonly taken as a measure of viable cells.

For data set [4], the system named is wildtype (WT) melanocytes. Nature of the data set: melanin assay in wildtype melanocytes. The conditions noted are these: FIG. 3; 72 hours. Type of data set: cell-based. The protocol:
as §2
Wildtype cells were plated in 24-well plates for 24 hours followed by dosing with the indicated compounds. DMSO was used as a vehicle control. Cells were harvested after 3 days and a melanin assay was performed as described above.
Selected compounds identified in the screen were tested using a traditional melanin assay in order to verify the findings of the screen. Following 3 (normal melanocytes) or 5 (mutant melanocytes) days of treatment, melanocytes were harvested in extraction buffer (50 mM Tris pH7.5, 2 mM EDTA, 150 mM NaCl) containing 1% Triton X-100 and protease inhibitors (Complete, Roche Indianapolis, Ind.) following two washes with 1× phosphate buffered saline (PBS). The lysate was centrifuged for 30 min at 13,000 rpm in a microfuge. The supernatant was removed and the protein concentration determined using a protein assay kit (BioRad, Richmond, Calif.). […] The optical density was determined at 490 nm. The value was normalized to protein concentration in the supernatant and expressed as a ratio of the melanin in the untreated cells.

Another data set deals with melanoma cells. The settings on record: reported previously; by upregulating expression of tyrosinase; cited from earlier work.

In the case of `CCN(CC)CCCC(C)Nc1ccnc2cc(Cl)ccc12` (racemic) [chloroquine, (RS)—N′-(7-chloroquinolin-4-yl)-N,N-diethyl-pentane-1,4-diamine], the “pigmentation (melanin level) in Oca2-null melanocytes” value in data set [1] was “increase pigmentation”. The “pigmentation in normal melanocytes” value in data set [2] was “decrease pigmentation”. The “pigmentation (melanin level) in Oca3-null melanocytes” value in data set [3] is recorded as “increase pigmentation”.

With `CO/C1=C\C(C)=C\[C@@H](C)[C@@H](O)[C@@H](C)C/C(C)=C/C=C/[C@H](OC)[C@@H]([C@@H](C)[C@@H](O)[C@H](C)[C@@]2(O)C[C@@H](O)[C@H](C)[C@@H](C(C)C)O2)OC1=O` [Bafilomycin, bafilomycin A1], the “accompanying toxicity in Oca2-null melanocytes” value in the data set on Oca2-null melanocytes is on record as “much less accompanying toxicity”. Besides, in data set [1] (FIG. 3, 72 hours), the “melanin content of Oca2-null (OCA2) melanocytes” value is given as “increased the melanin content”. Moreover, the “toxicity to wildtype melanocytes” value with wildtype melanocytes was “highly toxic”. Also, in the data set on Oca2-null cells, the “pigmentation of Oca2-null cells in 96-well screen” value was “reverses the pigmentation phenotype”.

On to `CC(C)Cn1c(=O)n(C)c(=O)c2[nH]cnc21` [IBMX, 3-isobutyl-1-methylxanthine], for which the “melanin content of wildtype (WT) melanocytes” value in data set [4] is recorded as “effective in increasing the melanin content”.

For `CO[C@H]1C[C@@H]2CC[C@@H](C)[C@@](O)(O2)C(=O)C(=O)N2CCCC[C@H]2C(=O)O[C@H]([C@H](C)C[C@@H]2CC[C@@H](O)[C@H](OC)C2)CC(=O)[C@H](C)/C=C(\C)[C@@H](O)[C@@H](OC)C(=O)[C@H](C)C[C@H](C)/C=C/C=C/C=C/1C` [rapamycin, Rapamycin], the “pigmentation in melanoma cells” value in the data set on melanoma cells is recorded as “increase pigmentation”. The “pigmentation (melanin level) in Oca2-null melanocytes” value in data set [1] was “increase pigmentation”. Also, in data set [3], the “pigmentation (melanin level) in Oca3-null melanocytes” value is “increase pigmentation”.
